# Biological target: T1, human CaSR (Homo sapiens, UniProt P41180)
# T1 sequence (P41180 20-1078): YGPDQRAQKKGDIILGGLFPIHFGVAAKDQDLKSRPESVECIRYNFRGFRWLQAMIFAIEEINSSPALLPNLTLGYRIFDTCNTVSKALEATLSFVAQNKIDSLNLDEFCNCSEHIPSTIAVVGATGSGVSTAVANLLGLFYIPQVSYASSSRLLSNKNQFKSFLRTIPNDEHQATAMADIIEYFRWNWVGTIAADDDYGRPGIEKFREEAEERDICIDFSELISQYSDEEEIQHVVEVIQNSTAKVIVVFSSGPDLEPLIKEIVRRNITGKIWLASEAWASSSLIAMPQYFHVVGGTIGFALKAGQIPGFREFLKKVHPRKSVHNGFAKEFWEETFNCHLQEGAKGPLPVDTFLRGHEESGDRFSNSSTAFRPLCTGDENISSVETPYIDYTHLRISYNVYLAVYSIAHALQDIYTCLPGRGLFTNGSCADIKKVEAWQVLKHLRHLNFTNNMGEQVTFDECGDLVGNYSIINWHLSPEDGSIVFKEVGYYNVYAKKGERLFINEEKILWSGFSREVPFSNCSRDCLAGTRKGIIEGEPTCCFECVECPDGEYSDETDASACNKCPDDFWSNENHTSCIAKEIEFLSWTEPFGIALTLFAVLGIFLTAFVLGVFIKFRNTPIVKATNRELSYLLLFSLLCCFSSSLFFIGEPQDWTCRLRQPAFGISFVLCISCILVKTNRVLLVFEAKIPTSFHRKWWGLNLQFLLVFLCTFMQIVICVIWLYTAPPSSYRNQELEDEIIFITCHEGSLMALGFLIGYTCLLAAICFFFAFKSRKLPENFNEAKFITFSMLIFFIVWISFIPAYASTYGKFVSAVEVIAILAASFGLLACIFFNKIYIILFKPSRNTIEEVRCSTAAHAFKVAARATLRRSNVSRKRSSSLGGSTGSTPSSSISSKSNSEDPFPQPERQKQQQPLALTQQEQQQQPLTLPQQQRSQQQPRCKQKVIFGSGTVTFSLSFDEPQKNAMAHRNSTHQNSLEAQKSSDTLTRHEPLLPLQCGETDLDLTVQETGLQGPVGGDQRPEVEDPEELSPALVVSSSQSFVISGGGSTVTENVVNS
# Assay: Functional whole cell assay (modulation of human CaSR), IP1 accumulation in CHO-K1 cells
# Format: cell-based
# Settings: CHO-K1 cells stably expressing human CaSR, final Ca2+ 1.9 mM, IP1 (IP-One htrf)
# Text: The assay investigates a compound's functional ability to act as a biological positive modulator on the human CaSR. Activation of the receptor expressed on CHO-K1 cells is detected through the G alpha q pathway, the activation of phospholipase C and the accumulation of intracellular inositol phosphate (IP) as described earlier [Sandrine Ferry, Bruno Chatel, Robert H. Dodd, Christine Lair, Danielle Gully, Jean-Pierre Maffrand, and Martial Ruat. Effects of Divalent Cations and of a Calcimimetic on Adrenocorticotropic Hormone Release in Pituitary Tumor Cells. Biological and Biophysical Research Comm., 238, 866-873 (1997)]. The human CaSR is stably expressed on a CHO-K1 cell clone, stimulated with a basal level of calcium and challenged with the tested compound. The level of IP1 is determined using the IP-One Terbium htrf kit (Cisbio, France). CHO-K1 cells not transfected with the CaSR fail to elicit an IP1 response upon calcium and/or compound stimulation.
# The ORF coding for the human CaSR (genebank: NM_000388) was acquired from Invitrogen Corp, USA and subsequently cloned into the mammalian expression vector pCDA3.1.
# CHO-K1 cells were transfected using Lipofectamine according to manufacturer's protocol (400.000 cells/well were seeded in a 6-well plate and transfected after 24 hours using 2 μg DNA and 5 μl lipofectamine). After another 24 hours the cells were detached, seeded and subjected to 1mg/ml of G-418. Following 7 days growth single clones were picked, the CaSR expression evaluated using the 5C10 antibody against CaSR, the clones with the highest expression were selected and tested for functional response. The preferred clone was cultured according to standard procedures described in ATCC (American Type Culture Collection) protocols for CHO-K1 with the addition of 500 μg/ml G-418.
# On the assay day, cells were thawed, harvested and resuspended to 4*10^6 cells/ml in stimulation buffer (containing: Hepes 10mM, MgCl2 0.5mM, KCl 4.2 mM, NaCl 146 mM, glucose 5.5 mM, LiCl 50 mM, BSA 0.5% at pH 7.4). Ten μl cell solution was pipetted into wells of a white 384-well plate (Perkin Elmer Optiplate) containing 2 μl compound diluted in assay buffer (containing: Hepes 10 mM, MgCl2 0.5mM, KCl 4.2mM, NaCl 146mM, glucose 5.5 mM, LiCl 50 mM, CaCl2 11.4 mM at pH 7.4), resulting in a final Ca^2+ concentration of 1.9 mM. After compound stimulation for 1 hour at 37° C. and 15 min at room temperature, 10 ul of IP-One assay detection reagent (prepared as described by the IP-One assay kit manufacturer) was added and the plate was incubated for another 1 hour at room temperature. Finally the plate was read using a Perkin Elmer EnVision, according to the protocol supplied by the IP-One assay kit manufacturer. The FRET ratio was calculated by dividing the 665 nm emission signal with that of the 615 nm.
# The molar concentration of a compound that produces 50% of the maximum agonistic response (the […] value) is calculated according to the equation “General sigmoidal curve with Hill slope, a to d” (Equation 1). This model describes a sigmoidal curve with an adjustable baseline. The equation can be used to fit curves where response is either increasing or decreasing with respect to the independent variable, X. […]
# y=(a−d)/(1+(x/c)̂b)+d Equation 1. x=concentration of tested compound […]
# a=min response as compound concentration approaches 0 d=max response as concentration of tested compound is increasing […]
# b=Hill coefficient or curve slope
# Assay results using compounds of the present invention indicate that compounds of the present invention are potent modulators of CaSR, thus making them potentially useful in the treatment of diseases related to kidneys or bones.
row,SMILES,EC50 [µM]
1,"COc1cc([C@@H](C)N[C@H]2CC[C@@H](c3ccc(CC(=O)NCCNS(C)(=O)=O)cc3)C2)ccc1F [Compound 102, 2-[4-[(1R,3S)-3-[[(1R)-1-(4-Fluoro-3-methoxy-phenyl)ethyl]amino]-cyclopentyl]phenyl]-N-[2-(methanesulfonamido)ethyl]acetamide; formic acid]",0.2 to 1
2,"COc1cc([C@@H](C)N[C@H]2CC[C@@H](c3ccc(CC(=O)N4CC(O)C4)cc3)C2)ccc1F [Compound 109, 2-[4-[(1R,3S)-3-[[(1R)-1-(4-Fluoro-3-methoxy-phenyl)ethyl]amino]-cyclopentyl]phenyl]-1-(3-hydroxyazetidin-1-yl)ethanone]",< 0.2
3,"COc1cc([C@@H](C)N[C@H]2CC[C@@H](c3ccc(CC(=O)N4CCCNCC4)cc3)C2)ccc1F [Compound 110, 1-(1,4-Diazepan-1-yl)-2-[4-[(1R,3S)-3-[[(1R)-1-(4-fluoro-3-methoxy-Phenyl)ethyl]amino]cyclopentyl]phenyl]ethanone]",< 0.2
4,"COc1cc([C@@H](C)N[C@H]2CC[C@@H](c3ccc(CC(=O)N4CCC(N)CC4)cc3)C2)ccc1F [Compound 112, 1-(4-Amino-1-piperidyl)-2-[4-[(1R,3S)-3-[[(1R)-1-(4-fluoro-3-methoxy-phenyl)ethyl]amino]cyclopentyl]phenyl]ethanone]",< 0.2

# Second part, the compound after the results:
row,EC50 [µM],SMILES
1,< 0.2,"COc1cc([C@@H](C)N[C@H]2CC[C@@H](c3ccc(CC(=O)NCCS(N)(=O)=O)cc3)C2)ccc1F [Compound 103, 2-[4-[(1R,3S)-3-[[(1R)-1-(4-Fluoro-3-methoxy-phenyl)ethyl]amino]-cyclopentyl]phenyl]-N-(2-sulfamoylethyl)acetamide; formic acid]"
2,< 0.2,"C[C@@H](N[C@H]1CC[C@@H](c2ccc(CC(=O)NCCS(N)(=O)=O)cc2)C1)c1cccc2c1OCO2 [Compound 104, 2-[4-[(1R,3S)-3-[[(1R)-1-(1,3-Benzodioxol-4-yl)ethyl]amino]-cyclo-pentyl]-phenyl]-N-(2-sulfamoylethyl)acetamide]"
3,< 0.2,"CCOc1cccc([C@@H](C)N[C@H]2CC[C@@H](c3ccc(CC(=O)NCCS(N)(=O)=O)cc3)C2)c1 [Compound 106, 2-[4-[(1R,3S)-3-[[(1R)-1-(3-Ethoxyphenyl)ethyl]amino]cyclopentyl]phenyl]-N-(2-sulfamoylethyl)acetamide]"
4,< 0.2,"COc1cc([C@@H](C)N[C@H]2CC[C@@H](c3ccc(CC(=O)NCCNCCO)cc3)C2)ccc1F [Compound 108, 2-[4-[(1R,3S)-3-[[(1R)-1-(4-Fluoro-3-methoxy-phenyl)ethyl]amino]-cyclopentyl]phenyl]-N-[2-(2-hydroxyethylamino)ethyl]acetamide]"

# From patent US20130244995A1, “CALCIUM-SENSING RECEPTOR-ACTIVE COMPOUNDS” (LEO PHARMA A/S, priority 2010, published 2013)
